# Experiments:
# [1] = system: mouse model of Parkinson's disease established by the intraperitoneal injection of MPTP; assay: Behavioral balance beam score in MPTP model of Parkinson's disease; assay type: in vivo, C57/BL6 mice; settings: scale 0-5
# Method: C57/BL6 mice, SPF grade, weighing 18-20 g, aged 6-8 weeks, male, purchased from Shanghai Slac Laboratory Animal Co., Ltd. Feeding environment: the temperature was kept at 22±1° C., and the humidity was kept at 65%-70%, in a 12/12 hour light/dark illumination cycle, with free access to water.
# • (1) SPF-grade C57 mice aged 6-8 weeks were purchased and acclimatized for one week, and subsequently the modeling was started. • (2) MPTP (25 mg/kg) was intraperitoneally injected once a day for 7 consecutive days. The blank group was left untreated. • (3) After modeling, administration was started. […] The intragastric administration was performed once a day for 14 consecutive days. • (4) Behavioral test was first performed by balance beam test scoring.
# A beam of 80 cm long and 2.5 cm wide was horizontally fixed at a height of 10 cm from the table top, and subsequently, the animals were allowed to walk on the beam. […]
# Bcl-2 = assay: WB detection of apoptosis-related protein Bcl-2 in hippocampal tissues of PTZ-kindling rats; assay type: in vivo, Wistar rats; settings: hippocampus at end of 14-day treatment, 100 mg/kg intragastric
# Method: (§1) At the end of the experiment, the brains and hippocampi of the laboratory animals were collected and frozen at −80° C.
# (§2) 4. WB Detection of Expression of Apoptosis-Related Proteins Bax and Bcl-2 in Hippocampal Tissues of Rats:
# (§3) The hippocampal tissue was cut into small pieces, the lysis buffer (protease and phosphatase inhibitors added to the lysis buffer) was added at a ratio of 150-250 μL:20 mg, and the mixture was homogenized with a homogenizer until complete lysis. The sample obtained after the lysis was centrifuged at 12,000 g at 4° C. for 15 min. The supernatant was taken, subjected to protein quantification, and stored in a refrigerator at −80° C.
# (§4) • (1) Standard curve plotting: a microplate was taken, and reagents were added according to the table below. […]
# (§5) About 25 μg of the protein was loaded into each well, and the loading amount can be increased according to the experiment requirements. According to the results of protein quantification, the required protein was taken and a proper amount of sample loading buffer was added. […]
# γ-aminobutyric acid = assay: Content of γ-aminobutyric acid in homogenate of brain tissues of rats (kit method); assay type: in vivo, Wistar rats; settings: PTZ rats after 14 days, 100 mg/kg intragastric (positive drug = valproate)
# Method: (§6) 5. Determination of Contents of γ-Aminobutyric Acid, Glutamic Acid, Glycine, and Aspartic Acid in Rat Brain Tissue by the Kit Method
# (§7) The experimental procedures and methods were referred to the kit instructions.
# (§8) The contents of excitatory amino acids (glutamic acid and aspartic acid) and inhibitory neurotransmitters (γ-aminobutyric acid and glycine) in the homogenate of brain tissues were determined by an ELISA kit.
# aspartic acid = assay: Content of aspartic acid in homogenate of brain tissues of rats (kit method); assay type: in vivo, Wistar rats; settings: PTZ rats after 14 days, 100 mg/kg intragastric (positive drug = valproate)
# Method: as §6, §7, §8
# Bax = assay: WB detection of apoptosis-related protein Bax in hippocampal tissues of PTZ-kindling rats; assay type: in vivo, Wistar rats; settings: hippocampus at end of 14-day treatment, 100 mg/kg intragastric, versus model group
# Method: as §1, §2, §3, §4, §5
compound,measurement,setting,value
C=C(C)[C@@H]1CCC(C)=C[C@H]1c1c(O)cc(CCCCC)cc1OCC(=O)N[C@@H](CCSC)C(=O)[O-].[Na+] [Compound E1],"behavioral balance beam score, After modeling","[1]; after MPTP 25 mg/kg i.p. for 7 days, before treatment",4.63 ± 0.52
same,"behavioral balance beam score, After treatment",[1]; intragastric 100 mg/kg once a day for 14 days (positive drug = amantadine 40 mg/kg),3.75 ± 0.89
same,Bcl-2 protein expression in hippocampal tissues,Bcl-2,significantly higher than that in the model group
same,γ-aminobutyric acid,γ-aminobutyric acid,771.17 ± 81.98 nmol/g
same,Aspartic acid,aspartic acid,58.10 ± 11.71 µmol/g
same,Bax protein expression in hippocampal tissues,Bax,significant down-regulation of Bax protein expression

# Reference: patent US20240417371A1, “CANNABIDIOL DERIVATIVE, AND PREPARATION METHOD THEREFOR AND USE THEREOF” (priority 2021, published 2024)
